From patent publication US10821142B2, “Cancer treatment and diagnosis” (priority 2015, dated 2020)

Experiments:
[1] = test system: STING-dependent genes in FHC cells; test: qPCR of Cxcl10 in human colon epithelial cells (FHC) treated with AOM; format: cell-based; conditions: FHC treated with RNAi to STING
Experimental: (§1) FIGS. 1A-1E show activation of STING-dependent genes by azoxymethane (AOM) (FIG. 1A) Gene array analysis of Wild type (WT) and STING deficient (SKO) mouse embryonic fibroblasts (MEFs) treated with AOM at 0.14 mM for 8 hours (Left) and 1,2-dimethylhydrazine (DMH) at 1 mM for 8 hours (Right). Highest variable genes are shown. Rows represent individual genes; columns represent individual samples. Grayscale indicates transcript levels below, equal to, or above the mean. Scale represents the intensity of gene expression (log 2 scale ranges between −2.4 and 2.4). (FIG. 1B) qPCR analysis of Cxcl10 and Ifit3 in MEFs treated with AOM and DMH same as FIG. 1A. (FIG. 1C) qPCR analysis of Cxcl10 in Human epithelial cell (FHC) treated with AOM and DMH at 1 mM for 24 hours. (FIG. 1D) FHC cells were transfected with STING or control siRNA for 72 hours followed by AOM and DMH treatment same as FIG. 1C, and were then subjected to Cxcl0 mRNA expression (Left). STING expression level after siRNA treatment was determined by qPCR (Right). […] (FIG. 1E) STING Immunohistochemistry staining of the colon tissue from WT and SKO mice (Left) and Human. All images were shown at original magnification, 200×.
Towards these objectives, the AOM/DSS model, as described above, was utilized and analyzed the effects of AOM and precursor DMH upon STING signaling. […]

IRF3/NF-κB translocation = test: Immunofluorescence of IRF3/NF-κB translocation in FHC treated with DMH/AOM; format: cell-based, human; conditions: 3 mM for 48 hours
Experimental: FIGS. 8A-8C show fluorescence microscopy analysis (related to FIG. 1) of DAPI staining in WT and SKO MEFs treated with 3 mM of AOM of 3 mM of DMH (FIG. 8A) and anti-dsDNA staining and the ration of cytoplasm to nucleus (FIG. 8B) in Human normal colon epithelial cells (FHC) treated with 3 mM of AOM or 3 mM of DMH for 48 hours. (FIG. 8C) Immunofluorescence microscopy analysis of FHC treated with AOM and DMH sane as FIG. 8A for 48 hours using p65 or IRF3 antibody. Images shown at original magnification, 160×.
To start determining the mechanisms underlining the cause of DMH/AOM-induced STING activity, MEF or FHC cells were treated with these drugs and observed by two different approaches, DAPI staining and immunofluorescence (IF) using anti-dsDNA antibody, the leakage of DNA into the cytosol (FIGS. 8A and 8B). Cytosolic DNA activates STING and stimulates STING/TBK1 trafficking via autophagy to endosomal regions harboring the transcription factors IRF3 and NF-κB, which triggers cytokine production. […]
Cells were cultured and treated in their appropriate media on Lab-Tek II chamber slides. […] Immunostaining was performed with rabbit-anti-STING polyclonal followed by fluorescence conjugated secondary antibodies (FITC-goat-anti-rabbit) (Invitrogen). […]

[2] = test system: STING-dependent genes in murine embryonic fibroblasts; test: Gene array and qPCR of WT and SKO MEFs treated with AOM or DMH; format: cell-based, mouse; conditions: AOM 0.14 mM for 8 hours
Experimental: as §1
Towards these objectives, the AOM/DSS model, as described above, was utilized and analyzed the effects of AOM and precursor DMH upon STING signaling. Principally, wild type (WT) or STING-deficient (SKO) murine embryonic fibroblasts (MEF) were treated in vitro with DMH or metabolite AOM for 8 hours and microarray analysis performed to analyze the consequences to gene expression. […] The observed STING-dependent gene expression was confirmed following RT-PCR analysis of select mRNA such as Cxcl10 and IFIT3 (FIG. 1B). […] Thus, the DNA damaging agent DMH/AOM can invoke STING-dependent signaling.
Total RNA was isolated from cells or tissues with RNeasy Mini kit (74104, Qiagen, Valencia, Calif.). RNA quality was analyzed by Bionalyzer RNA 6000 Nano (Agilent Technologies, Santa Clara Calif.). […]

colon = conditions: mice; single injection of AOM followed by DSS via drinking water; cited from earlier work
type I IFN production = test: IFNB induction (qPCR) in normal and colon cancer cells treated with AOM or DMH; format: cell-based, human; conditions: 15 mM for 20 hours
Experimental: FIG. 22. Normal and colon cancer cells were treated with AOM or DMH at 15 mM for 20 hours. IFNB induction was analyzed by qPCR. STING, IRF3 and NF-kB translocation was examined: +, translocation; −, no translocation.
The question arises as to why the STING-signaling pathway may be inhibited in colon adenocarcinoma. Recently, it was shown that STING-deficient cells and mice are sensitive to AOM-induced DNA damage. In this situation, the STING pathway may play a role in the DNA-damage response pathway, to induce the production of cytokines which facilitate tissue repair or damaged cell removal (Chatzinikolaou et al., 2014; Kidane et al., 2014; Lord and Ashworth, 2012). As such, innate immune induction of CA cells in response to DNA damaging agents was examined. […] Thus, the inhibition of the STING pathway may enable DNA damaged cells, harboring mutations, to escape part of the DNA damage response and the immune surveillance machinery to progress into a tumorigenic state.

CN=[N+](C)[O-] [AOM, Azoxymethane]
production of Cxcl10 [1]: similarly reduced
translocation of IRF3/NF-κB (IRF3/NF-κB translocation): could instigate the translocation of IRF3/NF-κB
mRNA production of innate immune related genes ([2]; MEFs lacking STING (SKO)): marked decrease in the production of the same genes
mRNA production of innate immune related genes ([2]; WT MEFs): activated mRNA production of a wide array of innate immune related genes
colon cancer induced (colon): ~100%
production of type I IFN (type I IFN production; CA cells with defective STING activated IRF3 or NF-kB activity): unable to generate type I IFN
production of type I IFN (type I IFN production; normal colon epithelial (CCD841) and LS123): able to induce the production of type I IFN
